# Patent US12723063B2, “GIPR-agonist compounds” (Eli Lilly and Company, priority 2019, dated 2026)
# *1 amine or outer side, *2 acyl side, *3 side chain or, on linkers, in order; H or OH if unused. Where a SMILES comes first, the peptide text is derived from it. Side-chain parts run from the residue outwards. [ ]: non-standard residue; d: D form. The star is where a group is joined. C20 diacid = O=C(O)CCCCCCCCCCCCCCCCCCC(=O)*; αMePhe(2-F) = C[C@](N)(Cc1ccccc1F)C(=O)O; γGlu = O=C(O)[C@H](CCC(=O)[*:2])N[*:1]; 4Pal = N[C@@H](Cc1ccncc1)C(=O)O; αMeL = CC(C)C[C@](C)(N)C(=O)O; AEEA = NCCOCCOCC(=O)O; Aib = CC(C)(N)C(=O)O
# Legend:
# Assay in all cases: cAMP functional assay (HTRF) in HEK293 cells in presence of 0.1% casein
# Assay type in all cases: cell-based
# [1] = target: T1, human GLP-1 receptor (GLP-1R) (Homo sapiens, UniProt P43220); conditions: HEK293 cells expressing human GLP-1R, geometric mean, read-out: hGLP1R cAMP Rel EC50 nM (SEM, n)
# T1 construct: expressed in transfected cells; host or cells: HEK293
# [2] = target: T2, human glucose-dependent insulinotropic peptide receptor (GIPR) (Homo sapiens, UniProt P48546); conditions: HEK293 cells expressing human GIPR, geometric mean, read-out: hGIPR cAMP Rel EC50 nM (SEM, n)
# T2 construct: expressed in transfected cells; host or cells: HEK293
# T2 sequence (P48546 22-466): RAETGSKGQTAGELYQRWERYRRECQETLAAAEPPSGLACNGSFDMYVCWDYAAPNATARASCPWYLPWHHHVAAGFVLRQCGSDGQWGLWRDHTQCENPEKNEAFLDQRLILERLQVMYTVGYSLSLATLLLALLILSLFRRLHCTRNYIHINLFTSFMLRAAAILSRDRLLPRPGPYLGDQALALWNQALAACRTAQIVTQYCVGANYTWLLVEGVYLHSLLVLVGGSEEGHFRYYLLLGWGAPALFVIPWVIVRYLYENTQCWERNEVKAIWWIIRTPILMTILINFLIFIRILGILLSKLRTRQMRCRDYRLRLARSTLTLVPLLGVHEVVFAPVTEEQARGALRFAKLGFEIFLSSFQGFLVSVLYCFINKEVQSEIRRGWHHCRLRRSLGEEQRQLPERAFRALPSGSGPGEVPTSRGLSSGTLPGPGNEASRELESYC
# [3] = target: T3, human glucagon receptor (GcgR) (Homo sapiens, UniProt P47871); conditions: HEK293 cells expressing human GcgR, geometric mean, read-out: hGcgR cAMP Rel EC50 nM (SEM, n)
# T3 construct: expressed in transfected cells; host or cells: HEK293
# T3 sequence (P47871 26-477): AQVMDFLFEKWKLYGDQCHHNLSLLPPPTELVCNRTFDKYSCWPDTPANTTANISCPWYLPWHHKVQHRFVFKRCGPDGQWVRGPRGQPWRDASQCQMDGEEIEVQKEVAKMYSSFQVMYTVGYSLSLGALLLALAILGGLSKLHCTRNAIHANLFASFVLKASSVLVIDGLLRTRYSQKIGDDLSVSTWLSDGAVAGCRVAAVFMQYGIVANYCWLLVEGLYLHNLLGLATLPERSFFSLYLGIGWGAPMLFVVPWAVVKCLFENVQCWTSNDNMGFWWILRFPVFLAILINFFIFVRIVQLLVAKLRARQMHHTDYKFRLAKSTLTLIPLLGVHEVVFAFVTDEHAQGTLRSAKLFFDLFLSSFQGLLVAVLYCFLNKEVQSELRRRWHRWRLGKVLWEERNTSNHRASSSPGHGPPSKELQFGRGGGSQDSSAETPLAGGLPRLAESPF
# T1 sequence (P43220 24-463): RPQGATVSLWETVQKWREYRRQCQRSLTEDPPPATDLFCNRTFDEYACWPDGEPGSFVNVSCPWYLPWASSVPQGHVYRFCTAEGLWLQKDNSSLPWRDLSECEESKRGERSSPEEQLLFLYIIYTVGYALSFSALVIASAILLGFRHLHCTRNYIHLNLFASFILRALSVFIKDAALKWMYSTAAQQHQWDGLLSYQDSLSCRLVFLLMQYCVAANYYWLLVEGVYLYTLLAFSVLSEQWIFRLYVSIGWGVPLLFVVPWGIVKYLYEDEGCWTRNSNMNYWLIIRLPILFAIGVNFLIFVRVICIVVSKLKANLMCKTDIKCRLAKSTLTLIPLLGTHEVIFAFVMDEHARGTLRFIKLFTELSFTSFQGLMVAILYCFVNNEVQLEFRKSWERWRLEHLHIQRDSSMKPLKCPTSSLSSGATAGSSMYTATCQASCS
smiles,measurement,setting,value
CC[C@H](C)[C@H](NC(=O)[C@H](Cc1ccccc1)NC(=O)[C@@H](NC(=O)CNC(=O)[C@H](CCC(=O)O)NC(=O)C(C)(C)NC(=O)[C@@H](N)Cc1ccc(O)cc1)[C@@H](C)O)C(=O)N[C@@H](CO)C(=O)N[C@@H](CC(=O)O)C(=O)N[C@@H](Cc1ccc(O)cc1)C(=O)N[C@@H](CO)C(=O)N[C@H](C(=O)N[C@@](C)(CC(C)C)C(=O)N[C@@H](CC(C)C)C(=O)N[C@@H](CC(=O)O)C(=O)N[C@@H](CCCCN)C(=O)N[C@@H](CCCCNC(=O)COCCOCCNC(=O)COCCOCCNC(=O)CC[C@H](NC(=O)CCCCCCCCCCCCCCCCCCC(=O)O)C(=O)O)C(=O)N[C@@H](Cc1c[nH]cn1)C(=O)N[C@@H](CCC(N)=O)C(=O)NC(C)(C)C(=O)N[C@@H](CC(=O)O)C(=O)N[C@@H](Cc1ccccc1)C(=O)N[C@H](C(=O)N[C@@H](CCC(=O)O)C(=O)N[C@@H](Cc1ccc(O)cc1)C(=O)N[C@@H](CC(C)C)C(=O)N[C@@H](CC(C)C)C(=O)N[C@@H](CCC(=O)O)C(=O)N[C@@H](C)C(=O)NCC(=O)N1CCC[C@H]1C(=O)N[C@@H](CO)C(=O)N[C@@H](CO)C(=O)NCC(=O)N[C@@H](C)C(=O)N1CCC[C@H]1C(=O)N1CCC[C@H]1C(=O)N1CCC[C@H]1C(=O)N[C@@H](CO)C(N)=O)C(C)C)[C@@H](C)CC [Example 68] (H-Y[Aib]EGTFISDYSI[αMeL]LDKK([AEEA-AEEA-γGlu-C20 diacid])HQ[Aib]DFVEYLLEAGPSSGAPPPS-NH2),EC50,[1],> 5000 nM
same,EC50,[2],0.0768 nM
same,EC50,[3],3030 nM
CC[C@H](C)[C@H](NC(=O)[C@H](CO)NC(=O)[C@H](Cc1ccc(O)cc1)NC(=O)[C@H](CC(=O)O)NC(=O)[C@H](CO)NC(=O)[C@@H](NC(=O)[C@](C)(Cc1ccccc1F)NC(=O)[C@@H](NC(=O)CNC(=O)[C@H](CCC(=O)O)NC(=O)C(C)(C)NC(=O)[C@@H](N)Cc1ccc(O)cc1)[C@@H](C)O)[C@@H](C)CC)C(=O)N[C@@H](C)C(=O)N[C@@H](CC(C)C)C(=O)N[C@@H](CC(=O)O)C(=O)N[C@@H](CCCCN)C(=O)N[C@@H](CCCCNC(=O)COCCOCCNC(=O)COCCOCCNC(=O)CC[C@H](NC(=O)CCCCCCCCCCCCCCCCCCC(=O)O)C(=O)O)C(=O)N[C@@H](Cc1c[nH]cn1)C(=O)N[C@@H](CCC(N)=O)C(=O)NC(C)(C)C(=O)N[C@@H](CC(=O)O)C(=O)N[C@@H](Cc1ccccc1)C(=O)N[C@H](C(=O)N[C@@H](CCC(=O)O)C(=O)N[C@@H](Cc1ccc(O)cc1)C(=O)N[C@@H](CC(C)C)C(=O)N[C@@H](CC(C)C)C(=O)N[C@@H](CCC(=O)O)C(=O)N[C@H](C(=O)NCC(=O)N1CCC[C@H]1C(=O)N[C@@H](CO)C(=O)N[C@@H](CO)C(=O)NCC(=O)N[C@@H](C)C(=O)N1CCC[C@H]1C(=O)N1CCC[C@H]1C(=O)N1CCC[C@H]1C(=O)N[C@@H](CO)C(N)=O)[C@@H](C)O)C(C)C [Example 36] (H-Y[Aib]EGT[αMePhe(2-F)]ISDYSIALDKK([AEEA-AEEA-γGlu-C20 diacid])HQ[Aib]DFVEYLLETGPSSGAPPPS-NH2),EC50,[1],1080 nM
same,EC50,[2],0.0543 nM
same,EC50,[3],> 5000 nM
CC[C@H](C)[C@H](NC(=O)[C@H](CO)NC(=O)[C@H](Cc1ccc(O)cc1)NC(=O)[C@H](CC(=O)O)NC(=O)[C@H](CO)NC(=O)[C@@H](NC(=O)[C@](C)(Cc1ccccc1F)NC(=O)[C@@H](NC(=O)CNC(=O)[C@H](CCC(=O)O)NC(=O)[C@H](C)NC(=O)[C@@H](Cc1ccc(O)cc1)NC(C)=O)[C@@H](C)O)[C@@H](C)CC)C(=O)N[C@@H](C)C(=O)N[C@@H](CC(C)C)C(=O)N[C@@H](CC(=O)O)C(=O)N[C@@H](CCCCN)C(=O)N[C@@H](CCCCNC(=O)COCCOCCNC(=O)COCCOCCNC(=O)CC[C@H](NC(=O)CCCCCCCCCCCCCCCCCCC(=O)O)C(=O)O)C(=O)N[C@@H](Cc1c[nH]cn1)C(=O)N[C@@H](CCC(N)=O)C(=O)NC(C)(C)C(=O)N[C@@H](CCC(=O)O)C(=O)N[C@@H](Cc1ccccc1)C(=O)N[C@H](C(=O)N[C@@H](CC(N)=O)C(=O)N[C@@H](Cc1ccc(O)cc1)C(=O)N[C@@H](CC(C)C)C(=O)N[C@@H](CC(C)C)C(=O)N[C@@H](CCC(=O)O)C(=O)NCC(=O)NCC(=O)N1CCC[C@H]1C(=O)N[C@@H](CO)C(=O)N[C@@H](CO)C(=O)NCC(=O)N[C@@H](C)C(=O)N1CCC[C@H]1C(=O)N1CCC[C@H]1C(=O)N1CCC[C@H]1C(=O)N[C@@H](CO)C(N)=O)C(C)C [Example 33] (Ac-[dY]AEGT[αMePhe(2-F)]ISDYSIALDKK([AEEA-AEEA-γGlu-C20 diacid])HQ[Aib]EFVNYLLEGGPSSGAPPPS-NH2),EC50,[1],> 5000 nM
same,EC50,[2],0.0551 nM
same,EC50,[3],> 5000 nM
CC[C@H](C)[C@H](NC(=O)[C@H](CO)NC(=O)[C@H](Cc1ccc(O)cc1)NC(=O)[C@H](CC(=O)O)NC(=O)[C@H](CO)NC(=O)[C@@H](NC(=O)[C@](C)(Cc1ccccc1F)NC(=O)[C@@H](NC(=O)CNC(=O)[C@H](CCC(=O)O)NC(=O)C(C)(C)NC(=O)[C@@H](N)Cc1ccc(O)cc1)[C@@H](C)O)[C@@H](C)CC)C(=O)N[C@@](C)(CC(C)C)C(=O)N[C@@H](CC(C)C)C(=O)N[C@@H](CC(=O)O)C(=O)N[C@@H](CCCCN)C(=O)N[C@@H](CCCCNC(=O)COCCOCCNC(=O)COCCOCCNC(=O)CC[C@H](NC(=O)CCCCCCCCCCCCCCCCCCC(=O)O)C(=O)O)C(=O)N[C@@H](Cc1c[nH]cn1)C(=O)N[C@@H](CCC(N)=O)C(=O)NC(C)(C)C(=O)N[C@@H](CC(=O)O)C(=O)N[C@@H](Cc1ccccc1)C(=O)N[C@H](C(=O)N[C@@H](CCC(=O)O)C(=O)N[C@@H](Cc1ccncc1)C(=O)N[C@@H](CC(C)C)C(=O)N[C@@H](CC(C)C)C(=O)N[C@@H](C)C(=O)NCC(=O)NCC(=O)N1CCC[C@H]1C(=O)N[C@@H](CO)C(=O)N[C@@H](CO)C(=O)NCC(=O)N[C@@H](C)C(=O)N1CCC[C@H]1C(=O)N1CCC[C@H]1C(=O)N1CCC[C@H]1C(=O)N[C@@H](CO)C(N)=O)C(C)C [Example 51] (H-Y[Aib]EGT[αMePhe(2-F)]ISDYSI[αMeL]LDKK([AEEA-AEEA-γGlu-C20 diacid])HQ[Aib]DFVE[4Pal]LLAGGPSSGAPPPS-NH2),EC50,[1],24.7 nM
same,EC50,[2],0.0166 nM
same,EC50,[3],308 nM
CC[C@H](C)[C@H](NC(=O)[C@H](Cc1ccccc1)NC(=O)[C@@H](NC(=O)CNC(=O)[C@H](CCC(=O)O)NC(=O)C(C)(C)NC(=O)[C@@H](N)Cc1ccc(O)cc1)[C@@H](C)O)C(=O)N[C@@H](CO)C(=O)N[C@@H](CC(=O)O)C(=O)N[C@@H](Cc1ccc(O)cc1)C(=O)N[C@@H](CO)C(=O)N[C@H](C(=O)N[C@@](C)(CC(C)C)C(=O)N[C@@H](CC(C)C)C(=O)N[C@@H](CC(=O)O)C(=O)N[C@@H](CCCCN)C(=O)N[C@@H](CCCCNC(=O)COCCOCCNC(=O)COCCOCCNC(=O)CC[C@H](NC(=O)CCCCCCCCCCCCCCCCCCC(=O)O)C(=O)O)C(=O)N[C@@H](Cc1c[nH]cn1)C(=O)N[C@@H](CCC(N)=O)C(=O)NC(C)(C)C(=O)N[C@@H](CC(=O)O)C(=O)N[C@@H](Cc1ccccc1)C(=O)N[C@H](C(=O)N[C@@H](CCC(=O)O)C(=O)N[C@@H](Cc1ccncc1)C(=O)N[C@@H](CC(C)C)C(=O)N[C@@H](CC(C)C)C(=O)N[C@@H](CCC(=O)O)C(=O)N[C@@H](CCC(N)=O)C(=O)NCC(=O)N1CCC[C@H]1C(=O)N[C@@H](CO)C(=O)N[C@@H](CO)C(=O)NCC(=O)N[C@@H](C)C(=O)N1CCC[C@H]1C(=O)N1CCC[C@H]1C(=O)N1CCC[C@H]1C(=O)N[C@@H](CO)C(N)=O)C(C)C)[C@@H](C)CC [Example 46] (H-Y[Aib]EGTFISDYSI[αMeL]LDKK([AEEA-AEEA-γGlu-C20 diacid])HQ[Aib]DFVE[4Pal]LLEQGPSSGAPPPS-NH2),EC50,[1],> 5000 nM
same,EC50,[2],0.0294 nM
same,EC50,[3],863 nM
CC[C@H](C)[C@H](NC(=O)[C@H](Cc1ccccc1)NC(=O)[C@@H](NC(=O)CNC(=O)[C@H](CCC(=O)O)NC(=O)C(C)(C)NC(=O)[C@@H](N)Cc1ccc(O)cc1)[C@@H](C)O)C(=O)N[C@@H](CO)C(=O)N[C@@H](CC(=O)O)C(=O)N[C@@H](Cc1ccc(O)cc1)C(=O)N[C@@H](CO)C(=O)N[C@H](C(=O)N[C@@](C)(CC(C)C)C(=O)N[C@@H](CC(C)C)C(=O)N[C@@H](CC(=O)O)C(=O)N[C@@H](CCCCN)C(=O)N[C@@H](CCCCNC(=O)COCCOCCNC(=O)COCCOCCNC(=O)CC[C@H](NC(=O)CCCCCCCCCCCCCCCCCCC(=O)O)C(=O)O)C(=O)N[C@@H](Cc1c[nH]cn1)C(=O)N[C@@H](CCC(N)=O)C(=O)NC(C)(C)C(=O)N[C@@H](CCC(=O)O)C(=O)N[C@@H](Cc1ccccc1)C(=O)N[C@H](C(=O)N[C@@H](CCC(=O)O)C(=O)N[C@@H](Cc1ccc(O)cc1)C(=O)N[C@@H](CC(C)C)C(=O)N[C@@H](CC(C)C)C(=O)N[C@@H](CCC(=O)O)C(=O)N[C@@H](CCC(N)=O)C(=O)NCC(=O)N1CCC[C@H]1C(=O)N[C@@H](CO)C(=O)N[C@@H](CO)C(=O)NCC(=O)N[C@@H](C)C(=O)N1CCC[C@H]1C(=O)N1CCC[C@H]1C(=O)N1CCC[C@H]1C(=O)N[C@@H](CO)C(N)=O)C(C)C)[C@@H](C)CC [Example 63] (H-Y[Aib]EGTFISDYSI[αMeL]LDKK([AEEA-AEEA-γGlu-C20 diacid])HQ[Aib]EFVEYLLEQGPSSGAPPPS-NH2),EC50,[1],> 5000 nM
same,EC50,[2],0.0398 nM
same,EC50,[3],1170 nM
